Measurements reported in patent US4568687A, “N-[2-4-(1H-Imidazol-1-yl)alkyl]-arylamides and pharmaceutical compositions” (American Cyanamid Company, priority 1984, dated 1986).
Counter-ions that a name gives are not always drawn.

What was measured:
thromboxane synthetase = target: T1, thromboxane synthetase (Rattus norvegicus, UniProt P49430); assay: Inhibition of thromboxane (TXB2) formation in washed rat platelets, TXB2 by direct radioimmunoassay; format: cell-based, Okamoto-Aoki spontaneously hypertensive rats (SHR); settings: 10 min; Dose 10^-4 (unit inferred); SHR platelet suspension, 10 minutes at 37° C.
T1 construct: The platelets were isolated by centrifuging the PRP for 10 minutes; endogenous in cells; host or cells: washed platelets from arterial blood of Okamoto-Aoki spontaneously hypertensive rats (rats from Taconic Farms)
T1 sequence (P49430 1-533): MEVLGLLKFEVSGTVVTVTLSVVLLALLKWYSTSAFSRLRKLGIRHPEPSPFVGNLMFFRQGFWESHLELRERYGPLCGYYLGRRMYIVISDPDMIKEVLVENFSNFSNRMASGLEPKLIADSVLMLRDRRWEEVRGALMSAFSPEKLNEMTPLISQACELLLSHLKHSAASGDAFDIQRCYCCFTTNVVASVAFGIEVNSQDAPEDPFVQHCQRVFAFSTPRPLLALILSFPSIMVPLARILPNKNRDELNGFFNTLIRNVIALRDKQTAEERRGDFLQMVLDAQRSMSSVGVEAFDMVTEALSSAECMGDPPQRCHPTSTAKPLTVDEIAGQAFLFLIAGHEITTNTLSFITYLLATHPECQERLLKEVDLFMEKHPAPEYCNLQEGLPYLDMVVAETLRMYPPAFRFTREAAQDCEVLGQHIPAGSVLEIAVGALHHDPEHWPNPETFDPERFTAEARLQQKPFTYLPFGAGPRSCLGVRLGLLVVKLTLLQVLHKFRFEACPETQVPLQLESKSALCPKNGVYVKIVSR
Description: Under urethan anesthesia, […] of arterial blood was collected in one ml. of 3.2% sodium citrate in a polystyrene tube from Okamoto-Aoki spontaneously hypertensive rats (SHR) (Taconic Farms, Germantown, NY) between 19 and 24 weeks in age. The blood was diluted with 3 ml. cold saline and centrifuged at room temperature for 15 minutes at 460×g. The platelet rich plasma (PRP) was separated. The platelets were isolated by centrifuging the PRP for 10 minutes at 1060×g and were washed in 4 ml. cold oxygenated Krebs phosphate buffer, pH 7.4. The chilled patelets recovered from centrifuging at 800×g for 10 minutes were resuspended in oxygenated Krebs phosphate buffer and diluted to contain 4.5-6.0×10^4 platelets/μl.
The inhibition of thromboxane (TX) formation was studied by determining the […] of thromboxane B2 (TXB2), the stable hydrolysis product of TXA2. Assay samples, prepared on ice, contained 200 μl platelet suspension, 50 μl saline, and 50 μl vehicle or drug under study (OKY-1581, UK-37248-01, 1-benzylimidazole, or indomethacin). The samples were incubated for 10 minutes at 37° C. in a metabolic shaker. The reaction was terminated by immersing the tubes in an ice bath and adding 50 μl of 0.5M citric acid. The samples were centrifuged for 10 minutes in a refrigerated centrifuge and the supernatants thus obtained were decanted and stored at -20° C. The TXB2 content for each sample was determined by a direct radioimmunoassay (RIA) utilizing a TXB2 specific RIA kit purchased from New England Nuclear, Boston, MA and expressed as pg TXB2 formed minute^-1 sample^-1, from which the percent inhibition of TXB2 formation was calculated.

[1] = tested on: spontaneously hypertensive rats of the Okamoto strain; assay: Hypotensive activity: mean arterial blood pressure (MABP) in spontaneously hypertensive rats, method of Chan and Poorvin; format: in vivo; settings: gavage, 100 mg/kg or less, two doses 24 hours apart, sodium chloride loading; 28 hours after initial dose; average of 1-4 rats; initial average 160±1.5 mm; active if ≤116 (1 rat), ≤122 (2 rats), ≤128 (3 rats)
Description: The novel compounds of the present invention are also active hypotensive agents and were tested for hypotensive activity by the method of P. S. Chan and D. Poorvin, Clinical and Experimental Hypertension, 1 (6), 817-830 (1979). Male, 16 week old, spontaneously hypertensive rats of the Okamoto strain, from Taconic Farms, Germantown, N.Y. having an average mean arterial blood pressure of 160±1.5 mm of mercury are used in the test. […] A rat is dosed by gavage with a test compound, suspended in 2% pre-boiled starch at a concentration of 50 mg/ml, at a dose of 100 mg/kg of body weight or less, with 0.9% sodium chloride loading at a dose of 25 ml/kg of body weight. A second identical dose of the test compound, without sodium chloride loading is given 24 hours later. At 28 hours after the initial dose, the mean arterial blood pressure (MABP) is measured by the method of Chan and Poorvin vide supra. The procedure is repeated in a second and third rat when necessary. Based on the data obtained and using the three-stage "sequential probability ratio test" statistical method, the criteria for activity or retest are as follows:
If the blood pressure in the first rat is ≤116 mm mercury the compound is considered active. If the blood pressure is between […], a second rat is used. If the average blood pressure of the first and second rats is ≤122 mm the compound is considered active. If the average blood pressure is between 123 and 137 mm, a third rat is used. If the average blood pressure of the three rats is ≤128 mm the compound is considered active. The results of this test on representative compounds of the present invention appear in Table II below.

inhibition at 100 µM (thromboxane synthetase) [%] | SMILES | MABP/mm Hg [1] [mm Hg]
95 | C=CCNc1ccc(Cl)cc1C(=O)NCCCn1ccnc1 [2-Allylamino-5-chloro-N--[3-(1H--imidazol-1-yl)propyl]benzamide] | 124
– | CC(CCN1C(=O)c2ccccc2C1=O)n1ccnc1 (stereo not shown) [2-[3-(1H--imidazol-1-yl)butyl]-1H--isoindole-1,3(2H)--dione] | 124
99 | O=C1c2ccccc2C(=O)N1CCCCn1ccnc1 [2-[4-(1H-Imidazol-1-yl)butyl]-1H-isoindole-1,3(2H)-dione] | 120
– | O=C1c2ccccc2C(=O)N1CCCCCCn1ccnc1 [2-[6-(1H--imidazol-1-yl)hexyl]-1H--isoindole-1,3(2H)--dione] | 110
80 | Cc1cc(Cl)cc(C(=O)NCCCn2ccnc2)c1N [2-amino-5-chloro-3-methyl-N--[3-(1H--imidazol-1-yl)propyl]benzamide dihydrochloride salt] | 125
96 | Nc1ccc(Cl)cc1C(=O)NCCCn1ccnc1 [2-amino-5-chloro-N--[3-(1H--imidazol-1-yl)propyl]benzamide] | 113
95 | O=C(NCCCn1ccnc1)c1ccccc1-c1ccccc1 [2-phenyl-N--[3-(1H--imidazol-1-yl)propyl]benzamide] | 124
86 | CC(CCNC(=O)c1ccc(Cl)c(Cl)c1)n1ccnc1 (stereo not shown) [3,4-dichloro-N--[3-(1H--imidazol-1-yl)butyl]benzamide] | 123
90 | Cc1cn(CCCNC(=O)c2ccc(Cl)c(Cl)c2)cn1 [3,4-dichloro-N--[3-(4-methyl-1H--imidazol-1-yl)propyl]benzamide] | 116
75.4 | O=C(NCCCn1ccnc1)c1cccc(Cl)c1 [3-Chloro-N-[3-(1H-imidazol-1-yl)propyl]benzamide] | 124
84 | Cc1cn(CCCNC(=O)c2cccc(Cl)c2)cn1 [3-chloro-N--[3-(4-methyl-1H--imidazol-1-yl)propyl]benzamide] | 122
69 | O=C(NCCCn1cnc(-c2ccccc2)c1)c1ccc(Cl)cc1 [4-Chloro-N-[3-(4-phenyl-1H-imidazol-1-yl)propyl]-benzamide] | 125
85 | O=C(NCCCn1ccnc1)c1ccc(Br)cc1 [4-bromo-N--[3-(1H--imidazol-1-yl)propyl]benzamide] | 120
– | O=C(NCCCn1ccnc1-c1ccccc1)c1ccc(Br)cc1 [4-bromo-N--[3-(2-phenyl-1H--imidazol-1-yl)propyl]benzamide, fumarate] | 115
80 | Cc1cn(CCCNC(=O)c2ccc(Br)cc2)cn1 [4-bromo-N--[3-(4-methyl-1H--imidazol-1-yl)propyl]benzamide] | 122
95 | O=C(NCCCn1ccnc1)c1ccc(Cl)cc1 [4-chloro-N--[3-(1H--imidazol-1-yl)propyl]benzamide] | 126
– | Cc1nccn1CCCNC(=O)c1ccc(Cl)cc1 [4-chloro-N--[3-(2-methyl-1H--imidazol-1-yl)propyl]benzamide] | 121
93 | Cc1cn(CCCNC(=O)c2ccc(Cl)cc2)cn1 [4-chloro-N--[3-(4-methyl-1H--imidazol-1-yl)propyl]benzamide] | 112
92 | Cc1cn(CCCNC(=O)c2ccc(C(F)(F)F)cc2)cn1 [4-trifluoromethyl-N--[3-(4-methyl-1H--imidazol-1-yl)propyl]benzamide] | 114
97 | O=C(NCCCCn1ccnc1)c1ccc(C(F)(F)F)cc1 [4-trifluoromethyl-N--[4-(1H--imidazol-1-yl)butyl]benzamide fumarate] | 123
75 | O=C(NCCCn1ccnc1)c1cccc2ccccc12 [N--[3-(1H--imidazol-1-yl)propyl]-1-naphthalenecarboxamide] | 124
97 | O=C(NCCCn1ccnc1)c1ccc2ccccc2c1 [N--[3-(1H--imidazol-1-yl)propyl]-2-naphthalenecarboxamide] | 127
– | Cc1ccc(CC(=O)NCCCn2ccnc2)cc1 [N--[3-(1H--imidazol-1-yl)propyl]-4-methylbenzeneacetamide, hemifumarate] | 109
96.3 | O=C(NCCCn1ccnc1)c1ccccc1 [N-[3-(1H-Imidazol-1-yl)propyl]benzamide] | 128
